From patent publication US20240025908A1, “COMPOUND USED AS KINASE INHIBITOR AND USE THEREOF” (TYK MEDICINES, INC., priority 2020, published 2024)

Key:
ROS1 = ROS1 (Homo sapiens (Human), UniProt P08922); experiment: Radio-tagged HotSpot kinase assay, ROS1; type: biochemical
Description: (§1) Inhibition of protein kinase activity by compounds was carried out on the Radio-tagged HotSpot kinase experimental platform of Reaction Biology Corporation. Fresh reaction solution (20 mM TIEPESpH 7.5, 10 mM MgCl2, 1 mM EGTA, 0.02% Brij35, 0.02 mg/ml BSA, 0.1 mM Na3VO4, 2 mM DTT, […]) containing corresponding substrates was prepared, cofactor and kinase to be tested were added into the above solution and mixed gently. Echo550 pipetting system was used to add the test compound DMSO solution to each well (the blank control group was added with the corresponding volume of DMSO), then 33P-ATP (with a final specific activity of 0.01 μCi/μL) was added to start the reaction. The reaction solution was incubated at room temperature for 120 minutes. Transferred the incubated reaction solution to P81 ion exchange chromatographic paper (Whatman #3698-915), eluted with […] phosphoric acid solution, and the amount of radioactive phosphorylated substrate remaining on the chromatographic paper was detected.

Ba/F3-CD74-ROS1-G2032R = experiment: Inhibition of cell proliferation (CellTiter-Glo), Ba/F3-CD74-ROS1-G2032R; type: cell-based; conditions: 72 hours
Description: (§2) The experiment of inhibiting cell proliferation by compounds was carried out in Hefei Zhongkeprecedo Biomedical Technology Co., Ltd. The Ba/F3 engineered cell line stably transfected with different kinase genes was recovered with RPMI 1640 medium (Biological Industries, Israel)+10% fetal bovine serum (Biological Industries, Israel)+1% double antibody (Penicillin Streptomycin solution, Coring, USA) and cultivated two generations. The logarithmic growth phase cell suspension was taken, and 2000 cells/well were inoculated on 96-well white cell culture plate (Corning 3917, NY, USA) with a volume of 95 μL per well. 5 μL of 20×DMSO solution of the compound to be tested was added into the culture plate containing 95 μL of cell suspension. The blank control group was added with corresponding volume of DMSO, mixed well, and incubated in a 5% CO2 incubator at 37° C. for 72 hours. CellTiter-Glo was used to detect cell viability.

TRKA (G677C) = TRKA (G677C) (Homo sapiens, UniProt P04629, G667C); experiment: Radio-tagged HotSpot kinase assay, TRKA (G677C); type: biochemical; conditions: read-out: TRKA (G677C) (IC50/nM)
TRKA (G677C), sequence (P04629 33-796 G667C limits assumed): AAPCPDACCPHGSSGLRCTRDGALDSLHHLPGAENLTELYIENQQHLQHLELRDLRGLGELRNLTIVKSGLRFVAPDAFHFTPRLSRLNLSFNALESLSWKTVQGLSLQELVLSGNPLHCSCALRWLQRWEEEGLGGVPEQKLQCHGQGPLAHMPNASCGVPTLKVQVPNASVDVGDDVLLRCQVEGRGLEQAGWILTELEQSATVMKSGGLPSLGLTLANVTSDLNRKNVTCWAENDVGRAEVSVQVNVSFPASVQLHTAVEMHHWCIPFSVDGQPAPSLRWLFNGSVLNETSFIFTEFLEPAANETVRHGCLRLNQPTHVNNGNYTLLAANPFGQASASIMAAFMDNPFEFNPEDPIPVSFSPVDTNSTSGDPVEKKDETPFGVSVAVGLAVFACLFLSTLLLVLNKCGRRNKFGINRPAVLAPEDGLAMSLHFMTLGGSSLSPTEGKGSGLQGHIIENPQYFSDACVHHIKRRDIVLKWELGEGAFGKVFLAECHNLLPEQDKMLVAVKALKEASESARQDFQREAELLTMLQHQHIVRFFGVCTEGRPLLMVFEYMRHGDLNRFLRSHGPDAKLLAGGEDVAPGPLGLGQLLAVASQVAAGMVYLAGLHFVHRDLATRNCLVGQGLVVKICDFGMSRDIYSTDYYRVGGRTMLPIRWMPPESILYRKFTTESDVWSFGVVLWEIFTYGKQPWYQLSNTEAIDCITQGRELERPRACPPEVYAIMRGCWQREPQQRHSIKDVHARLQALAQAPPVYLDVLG
Description: as §1

Ba/F3-TEL-ALK-G1202R = experiment: Inhibition of cell proliferation (CellTiter-Glo), Ba/F3-TEL-ALK-G1202R; type: cell-based; conditions: 72 hours
Description: as §2

Ba/F3-LMNA-NTRK1-G595R = experiment: Inhibition of cell proliferation (CellTiter-Glo), Ba/F3-LMNA-NTRK1-G595R; type: cell-based; conditions: 72 hours
Description: as §2

ALK = ALK (Homo sapiens (Human), UniProt Q9UM73); experiment: Radio-tagged HotSpot kinase assay, ALK; type: biochemical
ALK, sequence (Q9UM73 19-1620): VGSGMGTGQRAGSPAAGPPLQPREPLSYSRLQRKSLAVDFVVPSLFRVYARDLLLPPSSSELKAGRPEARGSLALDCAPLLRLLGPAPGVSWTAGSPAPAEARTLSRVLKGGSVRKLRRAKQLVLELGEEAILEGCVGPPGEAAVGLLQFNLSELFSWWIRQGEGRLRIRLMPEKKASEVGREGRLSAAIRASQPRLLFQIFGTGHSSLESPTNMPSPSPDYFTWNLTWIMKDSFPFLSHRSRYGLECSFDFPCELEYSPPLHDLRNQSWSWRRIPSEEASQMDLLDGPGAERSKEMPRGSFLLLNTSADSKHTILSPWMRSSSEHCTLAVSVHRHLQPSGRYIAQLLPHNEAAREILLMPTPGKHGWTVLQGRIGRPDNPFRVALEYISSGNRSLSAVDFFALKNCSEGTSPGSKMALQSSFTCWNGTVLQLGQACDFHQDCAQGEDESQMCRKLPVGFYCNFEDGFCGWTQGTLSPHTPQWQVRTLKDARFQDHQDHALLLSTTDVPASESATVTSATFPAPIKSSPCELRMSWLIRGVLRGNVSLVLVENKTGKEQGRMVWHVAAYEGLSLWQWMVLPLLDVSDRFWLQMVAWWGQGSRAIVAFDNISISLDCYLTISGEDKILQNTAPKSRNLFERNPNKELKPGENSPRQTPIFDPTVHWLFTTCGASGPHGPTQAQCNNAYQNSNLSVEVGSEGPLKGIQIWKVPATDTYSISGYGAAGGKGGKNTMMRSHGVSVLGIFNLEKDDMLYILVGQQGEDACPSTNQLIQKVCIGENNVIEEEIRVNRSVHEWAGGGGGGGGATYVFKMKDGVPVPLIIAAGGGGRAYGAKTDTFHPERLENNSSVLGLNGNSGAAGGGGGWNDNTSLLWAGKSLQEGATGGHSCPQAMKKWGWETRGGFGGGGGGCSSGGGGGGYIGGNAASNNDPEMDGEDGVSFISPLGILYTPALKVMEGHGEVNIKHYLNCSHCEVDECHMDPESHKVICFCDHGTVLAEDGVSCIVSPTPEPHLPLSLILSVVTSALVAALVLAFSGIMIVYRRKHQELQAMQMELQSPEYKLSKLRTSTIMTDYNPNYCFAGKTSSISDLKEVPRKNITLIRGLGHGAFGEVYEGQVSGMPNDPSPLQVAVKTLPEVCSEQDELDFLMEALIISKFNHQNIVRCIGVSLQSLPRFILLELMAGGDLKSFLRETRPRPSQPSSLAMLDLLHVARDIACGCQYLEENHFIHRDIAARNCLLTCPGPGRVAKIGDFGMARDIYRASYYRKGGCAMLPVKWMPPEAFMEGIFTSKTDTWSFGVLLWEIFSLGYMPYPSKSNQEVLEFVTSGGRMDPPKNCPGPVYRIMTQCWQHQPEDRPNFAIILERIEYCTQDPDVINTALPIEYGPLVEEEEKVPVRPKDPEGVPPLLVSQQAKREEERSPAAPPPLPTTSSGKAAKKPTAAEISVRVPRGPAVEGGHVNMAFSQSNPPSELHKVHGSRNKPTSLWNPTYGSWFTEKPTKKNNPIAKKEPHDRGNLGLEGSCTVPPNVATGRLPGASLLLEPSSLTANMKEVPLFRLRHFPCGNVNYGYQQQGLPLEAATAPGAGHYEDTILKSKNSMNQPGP
Description: as §1

ROS1 (G2032R) = ROS1 (G2032R) (Homo sapiens (Human), UniProt P08922, G2032R); experiment: Radio-tagged HotSpot kinase assay, ROS1 (G2032R); type: biochemical
ROS1 (G2032R), sequence (P08922 28-2347 G2032R): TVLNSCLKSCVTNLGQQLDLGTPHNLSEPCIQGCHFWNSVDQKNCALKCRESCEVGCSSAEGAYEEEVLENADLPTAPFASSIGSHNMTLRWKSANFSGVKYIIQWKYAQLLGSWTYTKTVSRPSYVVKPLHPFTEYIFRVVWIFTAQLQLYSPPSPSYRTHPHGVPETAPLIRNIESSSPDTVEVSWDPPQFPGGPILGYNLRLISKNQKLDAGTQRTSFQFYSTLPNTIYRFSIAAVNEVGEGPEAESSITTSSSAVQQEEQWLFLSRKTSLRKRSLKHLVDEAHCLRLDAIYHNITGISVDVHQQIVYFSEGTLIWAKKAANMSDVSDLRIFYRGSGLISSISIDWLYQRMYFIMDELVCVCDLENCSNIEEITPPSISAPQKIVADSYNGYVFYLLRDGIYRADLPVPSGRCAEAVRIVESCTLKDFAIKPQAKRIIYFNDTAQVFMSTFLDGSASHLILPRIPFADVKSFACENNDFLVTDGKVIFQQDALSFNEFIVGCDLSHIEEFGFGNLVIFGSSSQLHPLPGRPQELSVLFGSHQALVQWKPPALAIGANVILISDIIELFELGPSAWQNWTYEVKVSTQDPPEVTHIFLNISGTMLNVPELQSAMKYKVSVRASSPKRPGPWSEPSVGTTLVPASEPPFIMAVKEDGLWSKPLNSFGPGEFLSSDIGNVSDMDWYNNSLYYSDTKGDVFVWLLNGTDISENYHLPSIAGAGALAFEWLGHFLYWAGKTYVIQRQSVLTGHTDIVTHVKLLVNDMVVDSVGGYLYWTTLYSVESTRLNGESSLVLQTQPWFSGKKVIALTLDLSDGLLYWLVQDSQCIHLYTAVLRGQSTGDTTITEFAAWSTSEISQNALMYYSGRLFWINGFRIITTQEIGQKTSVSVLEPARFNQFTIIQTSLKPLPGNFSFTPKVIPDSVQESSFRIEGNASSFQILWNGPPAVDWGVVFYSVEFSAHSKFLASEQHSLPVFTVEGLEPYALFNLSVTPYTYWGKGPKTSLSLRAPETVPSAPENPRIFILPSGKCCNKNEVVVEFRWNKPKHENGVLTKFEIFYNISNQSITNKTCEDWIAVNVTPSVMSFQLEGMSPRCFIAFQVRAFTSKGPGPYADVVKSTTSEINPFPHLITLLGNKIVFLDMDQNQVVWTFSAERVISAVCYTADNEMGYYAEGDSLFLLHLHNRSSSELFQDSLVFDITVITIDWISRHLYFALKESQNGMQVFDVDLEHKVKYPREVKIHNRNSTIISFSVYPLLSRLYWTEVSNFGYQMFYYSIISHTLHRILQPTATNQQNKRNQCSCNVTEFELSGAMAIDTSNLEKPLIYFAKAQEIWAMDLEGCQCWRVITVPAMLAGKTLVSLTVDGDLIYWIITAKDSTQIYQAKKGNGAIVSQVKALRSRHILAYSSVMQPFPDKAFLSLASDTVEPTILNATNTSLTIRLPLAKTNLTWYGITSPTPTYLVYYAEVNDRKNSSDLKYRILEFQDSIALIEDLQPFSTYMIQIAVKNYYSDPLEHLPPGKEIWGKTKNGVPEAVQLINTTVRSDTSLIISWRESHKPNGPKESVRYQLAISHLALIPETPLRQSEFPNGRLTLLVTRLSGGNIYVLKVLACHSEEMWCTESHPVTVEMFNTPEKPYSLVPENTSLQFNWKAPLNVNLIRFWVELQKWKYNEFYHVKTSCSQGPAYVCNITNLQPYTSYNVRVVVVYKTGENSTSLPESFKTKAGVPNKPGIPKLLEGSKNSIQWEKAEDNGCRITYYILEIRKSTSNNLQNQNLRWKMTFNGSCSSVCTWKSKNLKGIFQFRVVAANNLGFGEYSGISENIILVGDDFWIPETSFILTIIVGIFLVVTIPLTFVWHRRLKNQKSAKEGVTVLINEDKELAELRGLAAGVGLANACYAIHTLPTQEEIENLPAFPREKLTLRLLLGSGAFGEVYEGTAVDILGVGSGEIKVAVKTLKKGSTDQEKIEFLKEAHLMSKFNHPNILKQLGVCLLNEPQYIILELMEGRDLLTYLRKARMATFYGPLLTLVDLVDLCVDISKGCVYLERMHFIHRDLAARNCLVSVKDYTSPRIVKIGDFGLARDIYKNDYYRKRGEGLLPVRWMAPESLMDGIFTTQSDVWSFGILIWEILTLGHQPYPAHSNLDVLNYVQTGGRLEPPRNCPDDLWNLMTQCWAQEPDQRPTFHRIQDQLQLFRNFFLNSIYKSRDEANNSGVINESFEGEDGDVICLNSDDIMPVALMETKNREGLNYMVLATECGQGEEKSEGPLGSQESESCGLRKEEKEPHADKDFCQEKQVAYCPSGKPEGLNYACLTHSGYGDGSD
Description: as §1

ALK (G1202R) = ALK (G1202R) (Homo sapiens (Human), UniProt Q9UM73, G1202R); experiment: Radio-tagged HotSpot kinase assay, ALK (G1202R); type: biochemical
ALK (G1202R), sequence (Q9UM73 19-1620 G1202R): as the sequence (Q9UM73 19-1620) above, with G1184R counted along it
Description: as §1

TRKA = TRKA (Homo sapiens (Human), UniProt P04629); experiment: Radio-tagged HotSpot kinase assay, TRKA; type: biochemical
TRKA, sequence (P04629 33-796): as the sequence (P04629 33-796 G667C limits assumed) above, with C635G counted along it
Description: as §1

ROS1, sequence (P08922 28-2347): as the sequence (P08922 28-2347 G2032R) above, with R2005G counted along it

**Q.** How did the IC50 (ROS1) turn out when C[C@@H](Nc1ccn2ncc(C3=NOCCN3)c2n1)c1cc(F)ccc1OC(F)F [Example 9] was run?
**A.** The IC50 was less than 0.5 nM.

**Q.** And the IC50 (Ba/F3-CD74-ROS1-G2032R)?
**A.** The IC50 was 31.6 nM.

**Q.** And the IC50 (TRKA (G677C))?
**A.** Its IC50 is less than 0.5 nM.

**Q.** And the IC50 (Ba/F3-TEL-ALK-G1202R)?
**A.** Its IC50 is 75.6 nM.

**Q.** And the IC50 (Ba/F3-LMNA-NTRK1-G595R)?
**A.** The IC50 was 6.1 nM.

**Q.** And the IC50 (ALK)?
**A.** Its IC50 is 0.5 to 5 nM.

**Q.** What about the IC50 (ROS1 (G2032R)) of the same molecule?
**A.** Its IC50 is less than 0.5 nM.

**Q.** And the IC50 (ALK (G1202R))?
**A.** The IC50 was 5 to 50 nM.

**Q.** What about the IC50 (TRKA) of the same molecule?
**A.** The IC50 was less than 0.5 nM.
